Results on nine compounds are retold here after US8691838B2, “Heterocycles as protein kinase inhibitors” (Amgen Inc., priority 2008, dated 2014).

The structures appear in SMILES notation.

The target in the experiment is c-Met (Homo sapiens, UniProt P08581). Put plainly: c-Met receptor assay (HTRF kinase assay with GST-cMet (P) enzyme, gastrin substrate).
Sequence of c-Met (P08581 1058-1365): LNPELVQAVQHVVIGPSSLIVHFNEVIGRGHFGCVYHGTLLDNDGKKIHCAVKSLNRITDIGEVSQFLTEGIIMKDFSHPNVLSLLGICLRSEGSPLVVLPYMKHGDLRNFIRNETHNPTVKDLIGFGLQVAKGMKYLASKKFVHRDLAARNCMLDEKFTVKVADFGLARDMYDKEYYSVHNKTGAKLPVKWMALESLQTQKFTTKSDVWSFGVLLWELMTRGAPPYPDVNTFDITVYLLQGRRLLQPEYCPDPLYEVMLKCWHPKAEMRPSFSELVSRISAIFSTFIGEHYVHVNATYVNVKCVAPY
Experimental: A Kinase reaction Buffer was prepared as follows: 60 mM HEPES pH 7.4; 50 mM NaCl; 20 mM MgCl2; 5 mM MnCl2. When the assay was carried out, the following ingredients were freshly added: 2 mM DTT; 0.05% BSA; 0.1 mM Na3OV4.
Then incubated the plate at RT for 30 min.
KM ATP and KM gastrin for various enzymes were determined by HTRF/^33P labeling and HTRF methods.
Compound `CC(c1ccc2ncccc2c1)n1nnc2c(=O)[nH]ccc21` (racemic) [Example 10, (R/S)-1-(1-(quinolin-6-yl)ethyl)-1H-[1,2,3]triazolo[4,5-c]pyridin-4(5H)-one] came in with a Ki of 461 nM.

The compound `O=C1c2c(nnn2Cc2ccc3ncccc3c2)CCN1c1ccccc1` [Example 1, 5-phenyl-3-(quinolin-6-ylmethyl)-6,7-dihydro-3H-[1,2,3]triazolo[4,5-c]pyridin-4(5H)-one] came in with a Ki of 366 nM. The value for `Cc1cc(N2CCc3nnn(Cc4ccc5ncccc5c4)c3C2=O)sn1` [Example 2, 5-(3-methylisothiazol-5-yl)-3-(quinolin-6-ylmethyl)-6,7-dihydro-3H-[1,2,3]triazolo[4,5-c]pyridin-4(5H)-one] was 12 nM; that for `Cc1cc(N2CCc3nnn([C@@H](C)c4ccc5ncccc5c4)c3C2=O)sn1` [Example 4, (S)-5-(3-methylisothiazol-5-yl)-3-(1-(quinolin-6-yl)ethyl)-6,7-dihydro-3H-[1,2,3]triazolo[4,5-c]pyridin-4(5H)-one] was 8 nM. The value for `Cc1cc(N2CCc3nnn([C@H](C)c4ccc5ncccc5c4)c3C2=O)sn1` [Example 5, (R)-5-(3-methylisothiazol-5-yl)-3-(1-(quinolin-6-yl)ethyl)-6,7-dihydro-3H-[1,2,3]triazolo[4,5-c]pyridin-4(5H)-one] was 132 nM; that for `C[C@@H](c1ccc2ncccc2c1)n1nnc2ccn(-c3ccc(Cl)c(C(F)(F)F)c3)c(=O)c21` [Example 29, (S)-5-(4-chloro-3-(trifluoromethyl)phenyl)-3-(1-(quinolin-6-yl)ethyl)-3H-[1,2,3]triazolo[4,5-c]pyridin-4(5H)-one] was 3.4 nM. To `C[C@H](c1ccc2ncccc2c1)n1nnc2ccn(-c3ccc(Cl)c(C(F)(F)F)c3)c(=O)c21` [Example 30, (R)-5-(4-chloro-3-(trifluoromethyl)phenyl)-3-(1-(quinolin-6-yl)ethyl)-3H-[1,2,3]triazolo[4,5-c]pyridin-4(5H)-one] belongs 473 nM.

`C[C@@H](c1ccc2ncccc2c1)n1nnc2ccn(Cc3ccccc3)c(=O)c21` [Example 31, (S)-5-benzyl-3-(1-(quinolin-6-yl)ethyl)-3H-[1,2,3]triazolo[4,5-c]pyridin-4(5H)-one] showed a Ki of 1090 nM. The value for `C[C@H](c1ccc2ncccc2c1)n1nnc2ccn(Cc3ccccc3)c(=O)c21` [Example 32, (R)-5-benzyl-3-(1-(quinolin-6-yl)ethyl)-3H-[1,2,3]triazolo[4,5-c]pyridin-4(5H)-one] was 1310 nM.

Usually Ki stands for a measure of affinity in units of concentration, obtained from inhibition or displacement. A low value points to tighter binding.
